Assay results as given in patent publication US11427605B2, “Crystalline forms of 5-chloro-N4-[-2-(dimethylphosphoryl) phenyl]-N2-{2-methoxy-4-[4-(4-methylpiperazin-1-yl) piperidin-1-yl] phenyl} pyrimidine-2,4-diamine” (ARIAD Pharmaceuticals, Inc., priority 2014, dated 2022).
Values after ≈ are worked out from the molar mass of the structure shown. Values joined by “and” are separate entries in the source; they are usually repeats but may differ in a detail not shown here. Identical values can stand only once.

Legend:
Assay type in all cases: physicochemical
[1] = Quantitative solubility testing, set of 24 solvents (HPLC); settings: for solubility at 24 h: 20 °C
Method: Quantitative solubility testing was performed on brigatinib starting material, employing a set of 24 solvents (DMSO, heptane and water were performed in triplicate). In a vial, about 40 mg of starting material, 400 μL of solvent and a stir bar were added. After stirring for 24 h at 20° C. […], the liquid was retrieved, filtered, and analyzed for API content by HPLC.

[2] = Freeze-drying feasibility study; settings: organic solvent or mixture, thermodynamic from solid, data obtained from freeze drying experiment
Method: Freeze-drying. Six freeze-drying experiments were performed with samples of Form A as described in Table 10. Samples 1, 2, and 4 remained mostly crystalline, but samples 3 and 5 were amorphous and contained about 15-16% residual solvent. Sample 6 was amorphous and contained about 7% residual solvent. Forms E and F were produced using this method. However, due to the variable form and solvation, freeze-drying was not further employed to obtain amorphous brigatinib.

[3] = Slurry experiments at 20° C. and 40° C.; settings: slurry 40° C., Chloroform; the solids dissolved after 14 days
Method: A total of 68 slurry experiments were performed with brigatinib both at room temperature (20° C.) and 40° C., using 34 solvents. In all cases, a solvent volume of 250 μL was used. The slurries were stirred for two weeks. At the end of the slurry time, the vials were centrifuged and solids and mother liquids separated. The solids were analyzed wet and dry by XRPD and digital imaging. The measuring plates were then stored at ambient conditions for 3-4 weeks and another XRPD was obtained of the solid, any form change is shown by an arrow.

[4] = Crash crystallization with anti-solvent addition
Method: In the crash-crystallization experiments, 34 different crystallization conditions were applied, using 6 different solvents and 24 different anti-solvents (see Table 17). The anti-solvent addition experiments were performed forward. For each solvent, a stock solution was prepared, the concentration of brigatinib in each case being that attained at saturation at ambient temperature after equilibration for 24 hours before filtering.
For each experiment, the anti-solvent was added to each solvent vial, with a solvent to anti-solvent ratio of 1:0.25. In the cases where no precipitation occurred, this ratio was increased to 1:1, and if again no precipitation occurred the ratio was increased to 1:4, with a waiting time of 60 minutes between the additions (up to the third addition) and 35 minutes between the third addition and fourth addition. When no crystallization occurred or not enough solids precipitated for separation, samples were kept at 5° C. for 17 hours. The precipitated solids were separated from the liquids by centrifugation and decantation. When decantation could not be applied, the liquid was carefully removed using Pasteur's pipettes. The solids were dried at 200 mbar for 17 hours and analyzed by XRPD and digital imaging. In the cases where no precipitation occurred, the solvents were evaporated at 200 mbar for 17 hours prior to lowering the vacuum to 5 mbar. All obtained solids were analyzed by XRPD and digital imaging. The measuring plates containing the final solid were stored at ambient temperature for 5 weeks. The solid form was assessed again by XRPD. The arrows in Table 18 indicate if the form changed during storage.

[5] = Vapor diffusion into solution experiments; settings: solvent Cis-Decahydronaphthalene, anti-solvent vapor MethylCyclohexane, room temperature, two weeks; dry
Method: For the vapor diffusion into solution experiments, saturated solutions of brigatinib were exposed to anti-solvent vapors at room temperature for two weeks. An aliquot of saturated solution was transferred to a vial which was left open and placed in a closed container with anti solvent (see Table 20). After two weeks, the samples were evaluated for solid formation. Where solids were present, the liquids were separated from the solids, which were then dried at full vacuum. In the cases where no precipitation was observed, the solvents were placed overnight at 5° C. to promote precipitation. If no solids were present, the liquids were evaporated at 200 mbar for 75 hours, or, if still no solids were present, the liquids were further evaporated at 10 mbar for a maximum of 10 days. All obtained solids were analyzed dry by XRPD and digital imaging.

[6] = Thermocycling experiments; settings: thermocycling 5-40° C., 8 cycles
Method: A total of 33 slurries and 1 solution (chloroform) of starting material in solvents were prepared at room temperature. The mixtures were placed in a Crystal16™ to undergo the following temperature profile:
1. Heating at a rate of 5° C./h until reaching 40° C., with stirring (500 rpm)
2. Cooling at a rate of 5° C./h until 5° C., with stirring (200 rpm)
3. Aging for 30 min at 5° C.
After completion of the cycling program, the solids were separated from the mother liquids by centrifugation, dried under 200 mbar for 48 hours (2-ethoxyethanol for 283 hours) and analyzed by XRPD and digital imaging. For the applied crystallization conditions and corresponding obtained solid forms, see Table 24. Solid form (or mixture) following the arrow (→) was obtained upon remeasurement by XRPD after storage of the measuring plates at ambient conditions for 5 weeks.

- solubility at 24 h ([1]; 1,2-dichloroethane, organic solvent or mixture, thermodynamic from solid, 1,2-Dichloroethane): 38300 µg/mL (≈ 65600 µM)
- solubility at 24 h ([1]; 1,2-dimethoxyethane, organic solvent or mixture, thermodynamic from solid, 1,2-Dimethoxyethane): 1130 µg/mL (≈ 1930 µM)
- solubility at 24 h ([1]; 1,4-dioxane, organic solvent or mixture, thermodynamic from solid, 1,4-Dioxane): 4010 µg/mL (≈ 6870 µM)
- solubility at 24 h ([1]; 1-butanol, organic solvent or mixture, thermodynamic from solid): 17700 µg/mL (≈ 30400 µM)
- solubility at 24 h ([1]; 2-butanone, organic solvent or mixture, thermodynamic from solid): 1110 µg/mL (≈ 1900 µM)
- solubility ([1]; Dimethyl Sulfoxide, 20° C., 24 h, triplicate): 3020 µg/mL and 3050 µg/mL
- solubility ([1]; Ethyl Formate, 20° C., 24 h): 990 µg/mL (≈ 1690 µM)
- solubility at 24 h ([1]; N,N-dimethylacetamide, organic solvent or mixture, thermodynamic from solid): 470 µg/mL (≈ 805 µM)
- solubility at 24 h ([1]; acetone, organic solvent or mixture, thermodynamic from solid): 690 µg/mL (≈ 1180 µM)
- solubility at 24 h ([1]; acetonitrile, organic solvent or mixture, thermodynamic from solid): 360 µg/mL (≈ 616 µM)
- solubility at 24 h ([1]; butyl acetate, organic solvent or mixture, thermodynamic from solid): 320 µg/mL (≈ 548 µM)
- solubility at 24 h ([1]; chloroform, organic solvent or mixture, thermodynamic from solid, sample dissolved, no solids harvested): > 182000 µg/mL
- solubility at 24 h ([1]; cyclohexane, organic solvent or mixture, thermodynamic from solid, UR = under range): < 10 µg/mL
- solubility at 24 h ([1]; dichloromethane, organic solvent or mixture, thermodynamic from solid, sample dissolved, no solids harvested): > 197000 µg/mL
- solubility at 24 h ([1]; dimethyl sulfoxide, organic solvent or mixture, thermodynamic from solid, triplicate): 2950 µg/mL (≈ 5050 µM)
- solubility at 24 h ([1]; ethanol, organic solvent or mixture, thermodynamic from solid): 6710 µg/mL (≈ 11500 µM)
- solubility at 24 h ([1]; ethyl acetate, organic solvent or mixture, thermodynamic from solid): 420 µg/mL (≈ 719 µM)
- solubility at 24 h ([1]; isopropanol, organic solvent or mixture, thermodynamic from solid): 1550 µg/mL (≈ 2650 µM)
- solubility at 24 h ([1]; isopropyl acetate, organic solvent or mixture, thermodynamic from solid, UR = under range): < 10 µg/mL
- solubility at 24 h ([1]; methanol, organic solvent or mixture, thermodynamic from solid): 35300 µg/mL (≈ 60500 µM)
- solubility at 24 h ([1]; n-heptane, organic solvent or mixture, thermodynamic from solid, triplicate, UR = under range): < 10 µg/mL
- solubility at 24 h ([1]; nitromethane, organic solvent or mixture, thermodynamic from solid): 410 µg/mL (≈ 702 µM)
- solubility at 24 h ([1]; p-xylene, organic solvent or mixture, thermodynamic from solid): 350 µg/mL (≈ 599 µM)
- Residual solids after solubility testing, form by XRPD ([1]; set of 24 solvents, 20° C., 24 h): Form A
- solubility at 24 h ([1]; tetrahydrofuran, organic solvent or mixture, thermodynamic from solid, UR = under range): < 10 µg/mL
- solubility at 24 h ([1]; water, thermodynamic from solid, triplicate): 90 µg/mL (≈ 154 µM)
- solubility ([2]; 2,2,2-trifluoroethanol/water (80:20)): > 159000 µg/mL
- solubility ([2]; 2,2,2-trifluoroethanol/water (90:10)): > 172000 µg/mL
- solubility ([2]; 2,2,2-trifluoroethanol): > 224000 µg/mL
- Form dry (XRPD) [3]: A + E
- Form (XRPD) ([4]; solvent 1,4-Dioxane, anti-solvent Water, S:AS 1:4, no precipitation): A + H
- Form (XRPD) ([4]; solvent Chloroform, anti-solvent tert-Butyl methyl ether, S:AS 1:4, precipitation, wet): A + G
- Form (XRPD) ([4]; solvent Ethanol, anti-solvent Water, S:AS 1:4, no precipitation): A + H
- Form (XRPD) [5]: Am
- Form mother liquid (XRPD) ([6]; Chloroform): A + G
- Form mother liquid (XRPD) ([6]; n-Heptane): A + L
SMILES: COc1cc(N2CCC(N3CCN(C)CC3)CC2)ccc1Nc1ncc(Cl)c(Nc2ccccc2P(C)(C)=O)n1 [Brigatinib]
